# Laboratory results from patent US20240209019A1, “COMPOUNDS AND METHODS FOR TREATING HYPERKALEMIA” (ARDELYX, INC., priority 2019, published 2024).
# Molecular target: HSD2 (Homo sapiens (Human), UniProt P80365)
# Experiment: HSD2 activity: cortisol conversion in human descending colon organoid monolayer cultures (Example 112)
# Details: human descending colon epithelial cultures on transwells; 30 minute pre-incubation, then 40 nM cortisol for four hours; cortisol HTRF assay
# Sequence of HSD2 (P80365 whole entry): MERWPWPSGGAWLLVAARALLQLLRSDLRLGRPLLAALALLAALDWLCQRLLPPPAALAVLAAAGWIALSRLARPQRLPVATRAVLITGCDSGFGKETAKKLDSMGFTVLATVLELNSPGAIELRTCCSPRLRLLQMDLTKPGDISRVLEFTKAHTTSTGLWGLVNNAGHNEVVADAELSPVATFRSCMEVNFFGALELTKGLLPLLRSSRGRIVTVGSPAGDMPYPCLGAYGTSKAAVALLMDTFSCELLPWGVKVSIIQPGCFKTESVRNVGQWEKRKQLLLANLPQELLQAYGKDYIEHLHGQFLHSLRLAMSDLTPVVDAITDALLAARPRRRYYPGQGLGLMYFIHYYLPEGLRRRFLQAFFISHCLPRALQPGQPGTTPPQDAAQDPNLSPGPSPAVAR
row,SMILES,pIC50
1,"CC1(C)[C@@H](OCC(=O)OCc2oc(=O)oc2CO)CC[C@]2(C)[C@H]3C(=O)C=C4[C@@H]5C[C@@](C)(C(=O)O)CC[C@]5(C)CC[C@@]4(C)[C@]3(C)CC[C@@H]12 [Compound 711-1, (2S,4aS,6aS,6bR,8aR,10S,12aS,12bR,14bR)-10-(2-{[5-(hydroxymethyl)-2-oxo-2H-1,3-dioxol-4-yl]methoxy}-2-oxoethoxy)-2,4a,6a,6b,9,9,12a-heptamethyl-13-oxo-1,2,3,4,4a,5,6,6a,6b,7,8,8a,9,10,11,12,12a,12b,13,14b-icosahydropicene-2-carboxylic acid]",5.8
2,"Cc1oc(=O)oc1COC(=O)CO[C@H]1CC[C@]2(C)[C@H]3C(=O)C=C4[C@@H]5C[C@@](C)(C(=O)O)CC[C@]5(C)CC[C@@]4(C)[C@]3(C)CC[C@H]2C1(C)C [Compound 712-1, (2S,4aS,6aS,6bR,8aR,10S,12aS,12bR,14bR)-2,4a,6a,6b,9,9,12a-heptamethyl-10-{2-[(5-methyl-2-oxo-2H-1,3-dioxol-4-yl)methoxy]-2-oxoethoxy}-13-oxo-1,2,3,4,4a,5,6,6a,6b,7,8,8a,9,10,11,12,12a,12b,13,14b-icosahydropicene-2-carboxylic acid]",5
3,"CCOC(=O)c1cnn([C@H]2CC[C@@]3(C)[C@@H](CC[C@]4(C)[C@@H]3C(=O)C=C3[C@@H]5C[C@@](C)(C(=O)O)CC[C@]5(C)CC[C@]34C)[C@]2(C)C(=O)OCc2oc(=O)oc2C)c1OC [Compound 713-1, (2S,4aS,6aS,6bR,8aR,9S,10S,12aS,12bR,14bR)-10-[4-(ethoxycarbonyl)-5-methoxy-1H-pyrazol-1-yl]-2,4a,6a,6b,9,12a-hexamethyl-9-{[(5-methyl-2-oxo-2H-1,3-dioxol-4-yl)methoxy]carbonyl}-13-oxo-1,2,3,4,4a,5,6,6a,6b,7,8,8a,9,10,11,12,12a,12b,13,14b-icosahydropicene-2-carboxylic acid]",6.9
